In ChEMBL document CHEMBL3046616, “Design, synthesis, and biological activities of milbemycin analogues” (2011):

Tests used:
Assay type in all cases: functional
[1] = test system: Aphis fabae; experiment: Insecticidal activity against Aphis fabae (black bean aphid) infested soybean tender shoots measured 48 hr post compound dose by modified FAO dip method; parameters: concentration or dose not given beside the values
[2] = test system: Mythimna separata; experiment: Insecticidal activity against Mythimna separata (Oriental armyworm) fourth-instar larvae reared compound pre-treated corn leaves assessed as insect mortality at 200 mg/L measured 2 days post compound dose
[3] = test system: Tetranychus cinnabarinus; experiment: Insecticidal activity against Tetranychus cinnabarinus (carmine spider mite) […] assessed as larvicidal activity at 0.006 mg/L after 48 hr

Row | SMILES | mortality [1] | mortality at 200 µg/mL [2] | mortality at 0.006 µg/mL [3]
1 | CCC(C)[C@H]1O[C@]2(CC[C@@H]1C)C[C@@H]1C[C@@H](C/C=C(\C)[C@@H](OC(=O)/C(=N\OC)c3ccccc3)[C@@H](C)/C=C/C=C3\CO[C@@H]4/C(=N/OC)C(C)=C[C@@H](C(=O)O1)[C@]34O)O2 (stereo partly drawn) | 6.5% | 0% | 49%
2 | C/C=C/C(=O)O[C@H]1[C@H](C)O[C@@H](O[C@@H]2/C(C)=C/C[C@@H]3C[C@@H](C[C@]4(CC[C@H](C)[C@@H](C(C)CC)O4)O3)OC(=O)[C@@H]3C=C(C)[C@@H](O)[C@H]4OC/C(=C\C=C\[C@@H]2C)[C@]43O)C[C@@H]1OC (stereo partly drawn) | 100% | 88.9% | 25.1%
3 | CCC(C)[C@H]1O[C@]2(CC[C@@H]1C)C[C@@H]1C[C@@H](C/C=C(\C)[C@@H](O[C@H]3C[C@H](OC)[C@@H](OC(=O)c4ccc(F)cc4)[C@H](C)O3)[C@@H](C)/C=C/C=C3\CO[C@@H]4/C(=N/OC)C(C)=C[C@@H](C(=O)O1)[C@]34O)O2 (stereo partly drawn) | 11.2% | 0% | 11.1%
4 | CCC(C)[C@H]1O[C@]2(CC[C@@H]1C)C[C@@H]1C[C@@H](C/C=C(\C)[C@@H](O[C@H]3C[C@H](OC)[C@@H](OC(=O)c4ccccc4OC)[C@H](C)O3)[C@@H](C)/C=C/C=C3\CO[C@@H]4[C@H](O)C(C)=C[C@@H](C(=O)O1)[C@]34O)O2 (stereo partly drawn) | 100% | 98.2% | 16.4%
5 | CCC(C)[C@H]1O[C@]2(CC[C@@H]1C)C[C@@H]1C[C@@H](C/C=C(\C)[C@@H](OC(=O)c3ccccc3)[C@@H](C)/C=C/C=C3\CO[C@@H]4[C@H](O)C(C)=C[C@@H](C(=O)O1)[C@]34O)O2 (stereo partly drawn) | 76.5% | 88.6% | 31.1%
6 | CCC(C)[C@H]1O[C@]2(CC[C@@H]1C)C[C@@H]1C[C@@H](C/C=C(\C)[C@@H](O[C@H]3C[C@H](OC)[C@@H](OC(=O)C4C(C=C(Cl)Cl)C4(C)C)[C@H](C)O3)[C@@H](C)/C=C/C=C3\CO[C@@H]4[C@H](O)C(C)=C[C@@H](C(=O)O1)[C@]34O)O2 (stereo partly drawn) | 92.3% | 87.2% | 11.8%
7 | CCC(C)[C@H]1O[C@]2(CC[C@@H]1C)C[C@@H]1C[C@@H](C/C=C(\C)[C@@H](OC(=O)c3ccc(C)cc3)[C@@H](C)/C=C/C=C3\CO[C@@H]4[C@H](O)C(C)=C[C@@H](C(=O)O1)[C@]34O)O2 (stereo partly drawn) | 56.4% | 87.6% | 27.1%
8 | C/C=C\C(=O)O[C@@H]1/C(C)=C/C[C@@H]2C[C@@H](C[C@]3(CC[C@H](C)[C@@H](C(C)CC)O3)O2)OC(=O)[C@@H]2C=C(C)[C@@H](O)[C@H]3OC/C(=C\C=C\[C@@H]1C)[C@]32O (stereo partly drawn) | 73.5% | 76.8% | 40.9%
9 | CCC(C)[C@H]1O[C@]2(CC[C@@H]1C)C[C@@H]1C[C@@H](C/C=C(\C)[C@@H](OC(=O)c3ccccc3)[C@@H](C)/C=C/C=C3\CO[C@@H]4/C(=N/OC)C(C)=C[C@@H](C(=O)O1)[C@]34O)O2 (stereo partly drawn) | 7.2% | 0% | 9.2%
10 | CCC(C)[C@H]1O[C@]2(CC[C@@H]1C)C[C@@H]1C[C@@H](C/C=C(\C)[C@@H](O[C@H]3C[C@H](OC)[C@@H](OC(=O)c4ccc(OC)cc4)[C@H](C)O3)[C@@H](C)/C=C/C=C3\CO[C@@H]4[C@H](O)C(C)=C[C@@H](C(=O)O1)[C@]34O)O2 (stereo partly drawn) | 92.3% | 100% | 9.7%
11 | CCC(C)[C@H]1O[C@]2(CC[C@@H]1C)C[C@@H]1C[C@@H](C/C=C(\C)[C@@H](OC(=O)c3ccc(F)cc3)[C@@H](C)/C=C/C=C3\CO[C@@H]4[C@H](O)C(C)=C[C@@H](C(=O)O1)[C@]34O)O2 (stereo partly drawn) | 56.8% | 83.3% | 47.4%
12 | CCC(C)[C@H]1O[C@]2(CC[C@@H]1C)C[C@@H]1C[C@@H](C/C=C(\C)[C@@H](O[C@H]3C[C@H](OC)[C@@H](OC(=O)Nc4ccc(Cl)cc4)[C@H](C)O3)[C@@H](C)/C=C/C=C3\CO[C@@H]4[C@H](O)C(C)=C[C@@H](C(=O)O1)[C@]34O)O2 (stereo partly drawn) | 90.3% | 77.9% | 29.8%
13 | CCC(C)[C@H]1O[C@]2(CC[C@@H]1C)C[C@@H]1C[C@@H](C/C=C(\C)[C@@H](OC(=O)c3ccc(Cl)cc3)[C@@H](C)/C=C/C=C3\CO[C@@H]4/C(=N/OC)C(C)=C[C@@H](C(=O)O1)[C@]34O)O2 (stereo partly drawn) | 0% | 0% | 10.2%
14 | CCC(C)[C@H]1O[C@]2(CC[C@@H]1C)C[C@@H]1C[C@@H](C/C=C(\C)[C@@H](OC(=O)CC(C)(C)C)[C@@H](C)/C=C/C=C3\CO[C@@H]4[C@H](O)C(C)=C[C@@H](C(=O)O1)[C@]34O)O2 (stereo partly drawn) | 76.5% | 88.9% | 35.5%
15 | CCC(C)[C@H]1O[C@]2(CC[C@@H]1C)C[C@@H]1C[C@@H](C/C=C(\C)[C@@H](OC(=O)Nc3ccccc3)[C@@H](C)/C=C/C=C3\CO[C@@H]4[C@H](O)C(C)=C[C@@H](C(=O)O1)[C@]34O)O2 (stereo partly drawn) | 96.8% | 100% | 55.2%
16 | CCC(C)[C@H]1O[C@]2(CC[C@@H]1C)C[C@@H]1C[C@@H](C/C=C(\C)[C@@H](OC(=O)c3ccc(OC)cc3)[C@@H](C)/C=C/C=C3\CO[C@@H]4[C@H](O)C(C)=C[C@@H](C(=O)O1)[C@]34O)O2 (stereo partly drawn) | 75.2% | 100% | 34.8%
17 | CCC(C)[C@H]1O[C@]2(CC[C@@H]1C)C[C@@H]1C[C@@H](C/C=C(\C)[C@@H](OC(=O)Nc3ccc(Cl)cc3)[C@@H](C)/C=C/C=C3\CO[C@@H]4[C@H](O)C(C)=C[C@@H](C(=O)O1)[C@]34O)O2 (stereo partly drawn) | 67.8% | 88.5% | 30.8%
18 | CCC(C)[C@H]1O[C@]2(CC[C@@H]1C)C[C@@H]1C[C@@H](C/C=C(\C)[C@@H](O[C@H]3C[C@H](OC)[C@@H](OC(=O)c4ccc(C)cc4)[C@H](C)O3)[C@@H](C)/C=C/C=C3\CO[C@@H]4[C@H](O)C(C)=C[C@@H](C(=O)O1)[C@]34O)O2 (stereo partly drawn) | 92.5% | 89.7% | 4.5%
19 | CCC(C)[C@H]1O[C@]2(CC[C@@H]1C)C[C@@H]1C[C@@H](C/C=C(\C)[C@@H](OC(=O)/C(=N\OC)c3ccccc3)[C@@H](C)/C=C/C=C3\CO[C@@H]4[C@H](O)C(C)=C[C@@H](C(=O)O1)[C@]34O)O2 (stereo partly drawn) | 86.3% | 75.5% | 41.5%
20 | CCC(C)[C@H]1O[C@]2(CC[C@@H]1C)C[C@@H]1C[C@@H](C/C=C(\C)[C@@H](O[C@H]3C[C@H](OC)[C@@H](OC(=O)/C(=N\OC)c4ccccc4)[C@H](C)O3)[C@@H](C)/C=C/C=C3\CO[C@@H]4/C(=N/OC)C(C)=C[C@@H](C(=O)O1)[C@]34O)O2 (stereo partly drawn) | 15.9% | 0% | 36.6%
21 | CCC(C)[C@H]1O[C@]2(CC[C@@H]1C)C[C@@H]1C[C@@H](C/C=C(\C)[C@@H](O[C@H]3C[C@H](OC)[C@@H](OC(=O)c4ccccc4)[C@H](C)O3)[C@@H](C)/C=C/C=C3\CO[C@@H]4/C(=N/OC)C(C)=C[C@@H](C(=O)O1)[C@]34O)O2 (stereo partly drawn) | 5.9% | 0% | 8.6%
22 | CCC(C)[C@H]1O[C@]2(CC[C@@H]1C)C[C@@H]1C[C@@H](C/C=C(\C)[C@@H](O[C@H]3C[C@H](OC)[C@@H](OC(=O)c4cc(F)c(Cl)nc4Cl)[C@H](C)O3)[C@@H](C)/C=C/C=C3\CO[C@@H]4[C@H](O)C(C)=C[C@@H](C(=O)O1)[C@]34O)O2 (stereo partly drawn) | 88.2% | 0% | 16.5%
23 | CCC(C)[C@H]1O[C@]2(CC[C@@H]1C)C[C@@H]1C[C@@H](C/C=C(\C)[C@@H](O[C@H]3C[C@H](OC)[C@@H](OC(=O)Nc4ccccc4)[C@H](C)O3)[C@@H](C)/C=C/C=C3\CO[C@@H]4[C@H](O)C(C)=C[C@@H](C(=O)O1)[C@]34O)O2 (stereo partly drawn) | 97.6% | 100% | 45.2%
24 | CCC(C)[C@H]1O[C@]2(CC[C@@H]1C)C[C@@H]1C[C@@H](C/C=C(\C)[C@@H](O[C@H]3C[C@H](OC)[C@@H](OC(=O)c4ccc(Cl)cc4)[C@H](C)O3)[C@@H](C)/C=C/C=C3\CO[C@@H]4/C(=N/OC)C(C)=C[C@@H](C(=O)O1)[C@]34O)O2 (stereo partly drawn) | 8.7% | 0% | 6.2%
25 | CCC(C)[C@H]1O[C@]2(CC[C@@H]1C)C[C@@H]1C[C@@H](C/C=C(\C)[C@@H](OC(=O)C3C(C=C(Br)Br)C3(C)C)[C@@H](C)/C=C/C=C3\CO[C@@H]4[C@H](O)C(C)=C[C@@H](C(=O)O1)[C@]34O)O2 (stereo partly drawn) | 72.9% | 100% | 32.1%
26 | CCC(C)[C@H]1O[C@]2(CC[C@@H]1C)C[C@@H]1C[C@@H](C/C=C(\C)[C@@H](OC(=O)c3ccc(OC)cc3)[C@@H](C)/C=C/C=C3\CO[C@@H]4/C(=N/OC)C(C)=C[C@@H](C(=O)O1)[C@]34O)O2 (stereo partly drawn) | 6.3% | 0% | 5.9%
